From US20250313563A1, “GLYCOGEN SYNTHASE KINASE 3 INHIBITORS AND USES THEREOF” (The Broad Institute, Inc., priority 2022, published 2025) come the findings set out here.

For the experiment, the target named is GSK3β (Rattus norvegicus (Rat), UniProt P18266). The experiment can be described thus: In vivo target engagement assay (chemoproteomics, kinobeads), GSK3β. The note with it: P10 rat cortex. As to the method: Chemoproteomics competition was used to evaluate inhibitor selectivity and target engagement in vivo. Frozen cortexes were prepared for homogenization with 1.2 mL of Lysis Buffer (50 mM Tris-HCl, 0.8% NP-40 ((octylphenoxy poly(ethyleneoxy) ethanol)), 5% glycerol, 150 mM NaCl, 1.5 mM MgCl2, 25 mM NaF, 1 mM sodium vanadate, 1 mM DTT, pH 7.5 and supplemented with protease inhibitors). Tissues were homogenized in FastPrep-24 5G instrument at maximum oscillations for 20 seconds. The resulting brain homogenate was clarified by centrifugation for 1 h at 145 000 g, 4° C. The protein concentration of the supernatant was determined by BCA assay and each sample was diluted to final concentration of 5 mg/mL with lysis buffer. […] The dry peptide mixture was reconstituted in 15 μL of 0.1% trifluoro acetic acid and analyzed on ID nanoLC-MS/MS platform using a standardized 140 min method. Peptides were separated on an Easy-Spray column (75 μm×50 cm, PepMAP C18, 1.9 μm) at 250 nL/min, analyzed on a QExactive HF mass spectrometer at data dependent acquisition (DDA) mode with MS1 at 60,000 and MS2 at 15,000 resolution, respectively. […]
To measure direct target engagement of the compound for both GSK3α and GSK3β competitive chemoproteomics methodology was used. […] Enriched proteins were analyzed by liquid chromatography coupled with tandem mass spectrometry. […]

Structures are written as SMILES.

Chain of GSK3β (P18266 whole entry): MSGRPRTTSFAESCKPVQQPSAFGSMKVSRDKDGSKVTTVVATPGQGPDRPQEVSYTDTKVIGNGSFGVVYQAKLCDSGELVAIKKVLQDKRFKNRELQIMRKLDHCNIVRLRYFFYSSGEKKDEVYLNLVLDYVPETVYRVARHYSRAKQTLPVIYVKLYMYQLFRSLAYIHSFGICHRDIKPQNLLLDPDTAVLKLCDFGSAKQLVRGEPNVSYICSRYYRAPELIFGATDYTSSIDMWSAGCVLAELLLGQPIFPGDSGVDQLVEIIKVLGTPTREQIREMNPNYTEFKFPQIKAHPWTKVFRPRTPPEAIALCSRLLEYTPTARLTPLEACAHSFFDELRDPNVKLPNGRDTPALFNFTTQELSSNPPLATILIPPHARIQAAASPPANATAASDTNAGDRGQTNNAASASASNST

In the case of `CCC1(c2cccc(C(F)(F)F)c2)C2=C(Nc3n[nH]cc31)C(F)C(C)(C)CC2=O` (single isomer, unassigned) [Compound 837646, 4-ethyl-8-fluoro-7,7-dimethyl-4-(3-(trifluoromethyl)phenyl)-2,4,6,7,8,9-hexahydro-5H-pyrazolo[3,4-b]quinolin-5-one], the “binding to GSK3β, 24 hr” value (24 hr) is reported as “no significant binding detected”. Also, the “target engagement for GSK3β, 3 hours” value (three hours after dosing (Cmax, 60 mg/kg)) is listed as 40%.
